System: T-47D spheroids with HUVEC/MSC, viability
Test: Anticancer human tumor T-47D cell line growth inhibition [PI3K];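 also: spheroids exposed to agents for seven days before reading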;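 as to viability, T/C: percent of DMSO vehicle control luminescence so 100% = untreated growth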
Conditions: for IC50: curve of first compound; for viability, T/C: stronger effect = lower value
From the text: Combinatorial screen of targeted agents with the PI3K inhibitors inavolisib, alpelisib, duvelisib, and copanlisib in multi-cell type tumor spheroids
A high-throughput screen of multi-cell type tumor spheroids was designed to identify active combinations of targeted small molecules and PI3K pathway inhibitors. Complex spheroids include a stromal component modeled by human endothelial cells (HUVEC) and fibroblasts modeled by human mesenchymal stem cells (MSCs). The concentration ranges selected for each drug and investigational agent were based upon clinically achievable concentrations if the clinical Cmax of the agent was known.
Compounds. The drugs and investigational agents: inavolisib (NSC800729), alpelisib (NSC765974), duvelisib (NSC772469), copanlisib (NSC816437), ipatasertib (NSC767898), afuresertib (NSC778305), talazoparib (NSC767125), sapanisertib (NSC764658), selumetinib (NSC741078), tovorafenib (DAY101, NSC766906), vemurafenib (NSC761431), ravoxertinib (NSC781343), sotorasib (NSC818433), MRTX1133 (NSC 836407), abemaciclib (NSC 768073), palbociclib (NSC758247), venetoclax (NSC 766270), SY5609 (NSC837396), enzalutamide (NSC755605), and darolutamide (NSC825331), were obtained from the National Cancer Institute (NCI) Developmental Therapeutics Program Chemical Repository. The FDA-approved anticancer drug set is available from the NCI Developmental Therapeutics Program. […] The stock solutions were prepared in dimethyl sulfoxide (DMSO, Sigma-Aldrich, St. Louis, MO, cat. D2650) at 800-fold the tested concentration and stored at -70 degrees C prior to their use. All drugs and investigational agents were tested over a range starting from a high concentration at or near the clinical Cmax and decreasing in half-log increments. If the clinical Cmax for an agent had not been determined, the highest concentration tested was 10 microM.
Cell Culture. All cells were maintained in an incubator at 37 degrees C and 5% CO2 with 95% humidity. The PDC lines were cultured according to standard operating procedures established by the NCI PDMR (https://pdmr.cancer.gov/sops/default.htm). All PDCs were thawed and cultured in Matrigel-coated flasks prepared with a working solution of 1X Ham's F-12 nutrient mix, without supplementation (Invitrogen, Waltham, MA, cat. 11765054), 100 U/mL penicillin-streptomycin (Invitrogen, cat. 15140122), and 2.5% Matrigel (Corning Inc., Corning, NY, cat. 354248) for the first three passages. The 354836-022-R-J1-PDC, 475296-252-R-J1-PDC, and 997726-040-R-J2-PDC lines were cultured in 6A media, which includes advanced DMEM/F-12 (Thermo Fisher Scientific, cat. 12634028), 10 mM HEPES (Thermo Fisher Scientific, cat. 15630080), 1X GlutaMAX supplement (Thermo Fisher Scientific, cat. 35050061), 0.1 mg/mL primocin (InvivoGen, San Diego, CA, cat. ant-pm-2), 10% defined fetal bovine serum, heat inactivated (HyClone Laboratories Inc., Logan, UT, cat. SH30070.03HI), 50% L-WRN conditioned media (ATCC, cat. CRL-3276), 1.25 mM N-Acetyl-L-cysteine (Sigma-Aldrich, cat. A9165), 10 mM nicotinamide (Sigma-Aldrich, cat. N0636), 1X B-27 supplement (Thermo Fisher Scientific, cat. 17504044), 1X N-2 supplement (Thermo Fisher Scientific, cat. 17502048), and 10 microM Y-27632 dihydrochloride (Tocris Bioscience, Bristol, United Kingdom, cat. 1254). The 624824-186-R-J2-PDC line was cultured in 6C/Colon 1B media, which includes all 6A media components plus 50 ng/mL human EGF recombinant protein (Thermo Fisher Scientific, cat. PHG0311). […]

[1] = second compound 0.0316 µM, first compound 0.0316 µM
[2] = second compound 0.0316 µM, first compound 0.1 µM
[3] = second compound 0.0316 µM, first compound 0.316 µM
[4] = second compound 0.0316 µM, first compound 1 µM
[5] = second compound 0.0316 µM, first compound 3.16 µM
[6] = second compound 0.0316 µM, first compound 10 µM
[7] = second compound 0.1 µM, first compound 0.0316 µM
[8] = second compound 0.1 µM, first compound 0.1 µM
[9] = second compound 0.1 µM, first compound 0.316 µM
[10] = second compound 0.1 µM, first compound 1 µM
[11] = second compound 0.1 µM, first compound 3.16 µM
[12] = second compound 0.1 µM, first compound 10 µM
[13] = second compound 0.316 µM, first compound 0.0316 µM
[14] = second compound 0.316 µM, first compound 0.1 µM
[15] = second compound 0.316 µM, first compound 0.316 µM
[16] = second compound 0.316 µM, first compound 1 µM
[17] = second compound 0.316 µM, first compound 3.16 µM
[18] = second compound 0.316 µM, first compound 10 µM
[19] = second compound 1 µM, first compound 0.0316 µM
[20] = second compound 1 µM, first compound 0.1 µM
[21] = second compound 1 µM, first compound 0.316 µM
[22] = second compound 1 µM, first compound 1 µM
[23] = second compound 1 µM, first compound 3.16 µM
[24] = second compound 1 µM, first compound 10 µM
[25] = second compound 3.16 µM, first compound 0.0316 µM
[26] = second compound 3.16 µM, first compound 0.1 µM
[27] = second compound 3.16 µM, first compound 0.316 µM
[28] = second compound 3.16 µM, first compound 1 µM
[29] = second compound 3.16 µM, first compound 3.16 µM
[30] = second compound 3.16 µM, first compound 10 µM
[31] = second compound 10 µM, first compound 0.0316 µM
[32] = second compound 10 µM, first compound 0.1 µM
[33] = second compound 10 µM, first compound 0.316 µM
[34] = second compound 10 µM, first compound 1 µM
[35] = second compound 10 µM, first compound 3.16 µM
[36] = second compound 10 µM, first compound 10 µM

CC(Cn1ccc(-c2ccc(C#N)c(Cl)c2)n1)NC(=O)c1cc(C(C)O)[nH]n1 (stereo unspecified) + COc1c(OCCCN2CCOCC2)ccc2c3n(c(=NC(=O)c4cnc(N)nc4)nc12)CCN3
IC50 (second compound 0.00316 µM): > 10 µM | IC50 (second compound 0.01 µM): > 10 µM | IC50 (second compound 0.0316 µM): 8.44 µM | IC50 (second compound 0.1 µM): < 0.0316 µM | IC50 (second compound 0.316 µM): < 0.0316 µM | IC50 (second compound 1 µM): < 0.0316 µM | viability, T/C (second compound 0.00316 µM, first compound 0.0316 µM): 89% | viability, T/C (second compound 0.00316 µM, first compound 0.1 µM): 96% | viability, T/C (second compound 0.00316 µM, first compound 0.316 µM): 96.1% | viability, T/C (second compound 0.00316 µM, first compound 1 µM): 88% | viability, T/C (second compound 0.00316 µM, first compound 3.16 µM): 104% | viability, T/C (second compound 0.00316 µM, first compound 10 µM): 75.3% | viability, T/C (second compound 0.01 µM, first compound 0.0316 µM): 103% | viability, T/C (second compound 0.01 µM, first compound 0.1 µM): 83.3% | viability, T/C (second compound 0.01 µM, first compound 0.316 µM): 101% | viability, T/C (second compound 0.01 µM, first compound 1 µM): 93.5% | viability, T/C (second compound 0.01 µM, first compound 3.16 µM): 95.4% | viability, T/C (second compound 0.01 µM, first compound 10 µM): 59.5% | viability, T/C [1]: 69.2% | viability, T/C [2]: 77.4% | viability, T/C [3]: 74.7% | viability, T/C [4]: 82.1% | viability, T/C [5]: 79% | viability, T/C [6]: 45.7% | viability, T/C [7]: 38.9% | viability, T/C [8]: 39.2% | viability, T/C [9]: 41.5% | viability, T/C [10]: 45.7% | viability, T/C [11]: 40.7% | viability, T/C [12]: 33.9% | viability, T/C [13]: 14.8% | viability, T/C [14]: 15.9% | viability, T/C [15]: 15.3% | viability, T/C [16]: 14.4% | viability, T/C [17]: 18.7% | viability, T/C [18]: 20.4% | viability, T/C [19]: 8.77% | viability, T/C [20]: 8.22% | viability, T/C [21]: 7.63% | viability, T/C [22]: 5.85% | viability, T/C [23]: 7.24% | viability, T/C [24]: 3.67%

Cn1nccc1Nc1nccc(-c2ccn(C(CO)c3ccc(Cl)c(F)c3)c(=O)c2)n1 (stereo unspecified) + Cc1nc(NC(=O)N2CCCC2C(N)=O)sc1-c1ccnc(C(C)(C)C(F)(F)F)c1
IC50 (second compound 0.0316 µM): > 10 µM | IC50 (second compound 0.1 µM): > 10 µM | IC50 (second compound 0.316 µM): > 10 µM | IC50 (second compound 1 µM): > 10 µM | IC50 (second compound 3.16 µM): > 10 µM | IC50 (second compound 10 µM): < 0.0316 µM | viability, T/C [1]: 99.1% | viability, T/C [2]: 81.6% | viability, T/C [3]: 92.6% | viability, T/C [4]: 102% | viability, T/C [5]: 103% | viability, T/C [6]: 96.3% | viability, T/C [7]: 111% | viability, T/C [8]: 95.2% | viability, T/C [9]: 98.8% | viability, T/C [10]: 89.4% | viability, T/C [11]: 117% | viability, T/C [12]: 85.7% | viability, T/C [13]: 86.8% | viability, T/C [14]: 93.3% | viability, T/C [15]: 97.6% | viability, T/C [16]: 101% | viability, T/C [17]: 104% | viability, T/C [18]: 92.4% | viability, T/C [19]: 85.4% | viability, T/C [20]: 92.7% | viability, T/C [21]: 86.6% | viability, T/C [22]: 88% | viability, T/C [23]: 110% | viability, T/C [24]: 82% | viability, T/C [25]: 65.9% | viability, T/C [26]: 70.8% | viability, T/C [27]: 73.5% | viability, T/C [28]: 83.3% | viability, T/C [29]: 76.9% | viability, T/C [30]: 70.8% | viability, T/C [31]: 39.5% | viability, T/C [32]: 39.9% | viability, T/C [33]: 41.7% | viability, T/C [34]: 42.9% | viability, T/C [35]: 46.4% | viability, T/C [36]: 48.7%

C=CC(=O)N1CCN(c2nc(=O)n(-c3c(C)ccnc3C(C)C)c3nc(-c4c(O)cccc4F)c(F)cc23)C(C)C1 (stereo unspecified) + Cc1nc(NC(=O)N2CCCC2C(N)=O)sc1-c1ccnc(C(C)(C)C(F)(F)F)c1
IC50 (second compound 0.0316 µM): > 10 µM | IC50 (second compound 0.1 µM): > 10 µM | IC50 (second compound 0.316 µM): > 10 µM | IC50 (second compound 1 µM): > 10 µM | IC50 (second compound 3.16 µM): > 10 µM | IC50 (second compound 10 µM): < 0.0316 µM | viability, T/C [1]: 112% | viability, T/C [2]: 92.4% | viability, T/C [3]: 102% | viability, T/C [4]: 84.8% | viability, T/C [5]: 88.8% | viability, T/C [6]: 98.5% | viability, T/C [7]: 105% | viability, T/C [8]: 89.7% | viability, T/C [9]: 97.2% | viability, T/C [10]: 77.8% | viability, T/C [11]: 116% | viability, T/C [12]: 106% | viability, T/C [13]: 83.8% | viability, T/C [14]: 96% | viability, T/C [15]: 86.7% | viability, T/C [16]: 99% | viability, T/C [17]: 91.5% | viability, T/C [18]: 99.4% | viability, T/C [19]: 96.1% | viability, T/C [20]: 98% | viability, T/C [21]: 84.1% | viability, T/C [22]: 100% | viability, T/C [23]: 99.4% | viability, T/C [24]: 101% | viability, T/C [25]: 65.1% | viability, T/C [26]: 77.5% | viability, T/C [27]: 77.9% | viability, T/C [28]: 75.9% | viability, T/C [29]: 85.4% | viability, T/C [30]: 95.3% | viability, T/C [31]: 37% | viability, T/C [32]: 36.7% | viability, T/C [33]: 41.2% | viability, T/C [34]: 45% | viability, T/C [35]: 53% | viability, T/C [36]: 59.5%

Source: PubChem BioAssay AID1963959 (Molecular Pharmacology Branch, DTP, NCI, 2024)
